PMC11470957, “Principles of paralog-specific targeted protein degradation engaging the C-degron E3 KLHDC2” (Nature Communications, 2024)
Several values for one entry are separate records, joined by “and”; a condition that tells them apart may be missing. Equal values may be shown once.

What was measured:
[1] = test system: BRD proteins in U2OS KO/rescue lysate; assay: Degradation in non-denaturing lysates of U2OS KO/rescue cells; settings: non-denaturing U2OS KO/rescue lysate 4mg/ml, 10 µM, 30° C
[2] = molecular target: BRD4 (Homo sapiens, UniProt O60885); assay: Western blot of BRD4 levels after cellular dosing

COC(=O)CNC(=O)Cc1csc(-c2ccc3cccc(OCCN4CCN(C(=O)C[C@@H]5N=C(c6ccc(Cl)cc6)c6c(sc(C)c6C)-n6c(C)nnc65)CC4)c3c2)n1 [SJ46420]
degrader dependent decrease in BRD protein levels in lysate [1]: did not observe a degrader dependent decrease | BRD4 level relative to DMSO (100%) ([2]; 22Rv1, 0.16µM, 24 h, Fig S6f): 105 +/- 5.8% | BRD4 level relative to DMSO (100%) ([2]; 22Rv1, 0.63µM, 24 h, Fig S6f): 101 +/- 7.2% | BRD4 level relative to DMSO (100%) ([2]; 22Rv1, 1.3µM, 24 h, Fig S6f): 89 +/- 2.9% | BRD4 level relative to DMSO (100%) ([2]; 22Rv1, 2.5µM, 24 h, Fig S6f): 88 +/- 11% | BRD4 level relative to DMSO (100%) ([2]; 22Rv1, 5µM, 24 h, Fig S6f): 83 +/- 10% | BRD4 level relative to DMSO (100%) ([2]; 22Rv1, 10µM, 24 h, Fig S6f): 68 +/- 15% | Dmax ([2]; 22Rv1, read-out: BRD4 Dmax, 22Rv1, 24 h dose): 30% | BRD4 level relative to DMSO (100%) ([2]; 293T, 2.5µM, 24 h, Fig S6a): 98 +/- 5.3% | BRD4 level relative to DMSO (100%) ([2]; 293T, 5µM, 24 h, Fig S6a): 79 +/- 6.6% | BRD4 level relative to DMSO (100%) ([2]; AU565, 0.2µM, 8 h, Fig S6c): 82 +/- 4.7% | BRD4 level relative to DMSO (100%) ([2]; AU565, 1µM, 8 h, Fig S6c): 53 +/- 5.1% | BRD4 level relative to DMSO (100%) ([2]; AU565, 5µM, 8 h, Fig S6c): 4.1 +/- 1.3% | BRD4 level, Western blot quantification (DMSO = 100) ([2]; Fig 6b, KO/Rescue, 5 uM): 91.0765 and 107.689 | BRD4 level, Western blot quantification (DMSO = 100) ([2]; Fig 6b, U2OS, 5 uM): 77.4849 and 71.6749 | BRD4 level, Western blot quantification (DMSO = 100) ([2]; Fig 6c, 1 uM): 92.7102 and 86.955 | BRD4 level, Western blot quantification (DMSO = 100) ([2]; Fig 6d, 1 uM): 67.4942 and 82.9736 | BRD4 level, Western blot quantification (DMSO = 100) ([2]; Fig 6d, 1uM together with 1uM MLN4924): 118.408 and 100.267 | BRD4 level, Western blot quantification (DMSO = 100) ([2]; Fig S6a, 293T cells, 2.5 uM): 94.5347 and 102.135 | BRD4 level, Western blot quantification (DMSO = 100) ([2]; Fig S6a, 293T cells, 5 uM): 74.6014 and 84.7353 | BRD4 level, Western blot quantification (DMSO = 100) ([2]; Fig S6b, MDA-MB468 Cells, 2 uM): 86.0887 and 95.6433 | BRD4 level, Western blot quantification (DMSO = 100) ([2]; Fig S6b, MDA-MB468 Cells, 5 uM): 75.9577 and 82.1258 | BRD4 level, Western blot quantification (DMSO = 100) ([2]; Fig S6b, MDA-MB468 Cells, 10 uM): 65.8655 and 71.3135 | BRD4 level, Western blot quantification (DMSO = 100) ([2]; Fig S6c, AU565 Cells, 0.2 uM): 78.2951 and 85.4236 | BRD4 level, Western blot quantification (DMSO = 100) ([2]; Fig S6c, AU565 Cells, 1 uM): 49.0527 and 56.2352 | BRD4 level, Western blot quantification (DMSO = 100) ([2]; Fig S6c, AU565 Cells, 5 uM): 3.1923 and 5.662 | BRD4 level, Western blot quantification (DMSO = 100) ([2]; Fig S6e, PC3 KO/rescue Dose Response, 0.156 uM): 98.9143 and 85.6296 | BRD4 level, Western blot quantification (DMSO = 100) ([2]; Fig S6e, PC3 KO/rescue Dose Response, 0.313 uM): 95.5722 and 70.9157 | BRD4 level, Western blot quantification (DMSO = 100) ([2]; Fig S6e, PC3 KO/rescue Dose Response, 0.625 uM): 77.9263 and 60.6542 | BRD4 level, Western blot quantification (DMSO = 100) ([2]; Fig S6e, PC3 KO/rescue Dose Response, 1.25 uM): 36.0358 and 57.3958 | BRD4 level, Western blot quantification (DMSO = 100) ([2]; Fig S6e, PC3 KO/rescue Dose Response, 2.5 uM): 28.2357 and 25.3138 | BRD4 level, Western blot quantification (DMSO = 100) ([2]; Fig S6e, PC3 KO/rescue Dose Response, 5 uM): 3.953 and 2.975 | BRD4 level, Western blot quantification (DMSO = 100) ([2]; Fig S6e, PC3 KO/rescue Dose Response, 10uM): 0.3603 and 0.6573 | BRD4 level, Western blot quantification (DMSO = 100) ([2]; Fig S6f, 22RV1 KO/rescue Dose Response, 0.156 uM): 101.401 and 109.713 | BRD4 level, Western blot quantification (DMSO = 100) ([2]; Fig S6f, 22RV1 KO/rescue Dose Response, 0.313 uM): 109.261 and 111.474 | BRD4 level, Western blot quantification (DMSO = 100) ([2]; Fig S6f, 22RV1 KO/rescue Dose Response, 0.625 uM): 106.365 and 96.1732 | BRD4 level, Western blot quantification (DMSO = 100) ([2]; Fig S6f, 22RV1 KO/rescue Dose Response, 1.25 uM): 91.1283 and 87.0112 | BRD4 level, Western blot quantification (DMSO = 100) ([2]; Fig S6f, 22RV1 KO/rescue Dose Response, 2.5 uM): 95.8637 and 80.8873 | BRD4 level, Western blot quantification (DMSO = 100) ([2]; Fig S6f, 22RV1 KO/rescue Dose Response, 5 uM): 91.3116 and 76.191 | BRD4 level, Western blot quantification (DMSO = 100) ([2]; Fig S6f, 22RV1 KO/rescue Dose Response, 10uM): 79.6577 and 57.9117 | BRD4 level, Western blot quantification (DMSO = 100) ([2]; Fig S6g, SKBR3 Time course, 1 uM, 2hr): 104.311 and 100.652 | BRD4 level, Western blot quantification (DMSO = 100) ([2]; Fig S6g, SKBR3 Time course, 1 uM, 4hr): 75.4286 and 82.2353 | BRD4 level, Western blot quantification (DMSO = 100) ([2]; Fig S6g, SKBR3 Time course, 1 uM, 8hr): 78.3987 and 72.5234 | BRD4 level, Western blot quantification (DMSO = 100) ([2]; Fig S6g, SKBR3 Time course, 5 uM, 2hr): 109.415 and 100.234 | BRD4 level, Western blot quantification (DMSO = 100) ([2]; Fig S6g, SKBR3 Time course, 5 uM, 4hr): 59.7954 and 68.2545 | BRD4 level, Western blot quantification (DMSO = 100) ([2]; Fig S6g, SKBR3 Time course, 5 uM, 8hr): 59.199 and 52.2362 | BRD4 level, Western blot quantification (DMSO = 100) ([2]; Fig S6i, SKBR3, 5uM): 72.6081 and 84.277 | BRD4 level, Western blot quantification (DMSO = 100) ([2]; Fig S6i, U2OS, 5uM): 157.053 and 196.781 | BRD4 level, Western blot quantification (DMSO = 100) ([2]; Fig S6h, U2OS Time course, 5uM, 2hr): 126.968 and 100.342 | BRD4 level, Western blot quantification (DMSO = 100) ([2]; Fig S6h, U2OS Time course, 5uM, 4hr): 91.1641 and 100.137 | BRD4 level, Western blot quantification (DMSO = 100) ([2]; Fig S6h, U2OS Time course, 5uM, 8hr): 65.7267 and 72.5334 | BRD4 level, Western blot quantification (DMSO = 100) ([2]; Fig S6h, U2OS Time course, 5uM, 24hr): 56.1641 and 64.2352 | BRD4 level, Western blot quantification (DMSO = 100) ([2]; Fig S6d, U2OS KO/rescue Dose Response, 0.156 uM): 81.019 and 75.43 | BRD4 level, Western blot quantification (DMSO = 100) ([2]; Fig S6d, U2OS KO/rescue Dose Response, 0.313 uM): 75.0042 and 85.343
